Data as given in patent US12030904B2 (priority 2020, dated 2024).
Where two headings read alike, the source gives them in different places.

Assays:
[1] = test system: Recombinant Respiratory Syncytial virus strain A2 containing the firefly luciferase reporter (RSV-Fluc); test: microbe, parasite or virus in culture; assay type: cell-based
SARS-CoV-2 = test: microbe, parasite or virus in culture; assay type: cell-based
[2] = A549 cytotoxicity analysis (CellTiter-Glo); assay type: cell-based; settings: human, A549 cells
Experimental: The cytotoxicity of compounds was determined in A549 cells in the following manner. Compounds (40 nL) were spotted onto 384-well Grenier plates prior to seeding 5000 A549 cells/well in a volume of 40 μL culture medium. The plates were incubated at 37° C. for 48 hours with 5% CO2. On day 2, 40 μL of CellTiter-Glo (Promega) was added and mixed 5 times. Plates were read for luminescence on an Envision (PerkinElmer) and the CC50 (compound concentration for reducing 50% of luminescence signal as a measure of cell viability) were calculated using a nonlinear regression model (four parameters). Two experiments were performed with technical duplicates.

MT4 cytotoxicity (CC50) = settings: human, MT4 cells
MT4 = MT4 cytotoxicity (CC50); settings: read-out: MT4 CC50; Table 2a
[3] = human respiratory syncytial virus, NHBE, 72 h, read-out: RSV-Fluc EC50 (NHBE), NHBE cells, three days, Table 1
[4] = Severe acute respiratory syndrome coronavirus 2, 48 h, read-out: SARS-CoV-2 EC50

Structure (SMILES): CCCCCCCCCCCCCCCCCCOC[C@H](COP(=O)(O)OC[C@H]1O[C@@](C#N)(c2ccc3c(N)ncnn23)[C@H](O)[C@@H]1O)Oc1ccc(C#N)c(OC(C)C)c1 [Example 72, ((2R,3S,4R,5R)-5-(4-aminopyrrolo[2,1-f][1,2,4]triazin-7-yl)-5-cyano-3,4-dihydroxytetrahydrofuran-2-yl)methyl ((R)-2-(4-cyano-3-isopropoxyphenoxy)-3-(octadecyloxy)propyl) hydrogen phosphate]
- EC50 ([1]; human respiratory syncytial virus, NHBE, 72 h, read-out: RSV-Fluc EC50 (NHBE), NHBE cells, three days, Table 2): 0.008 µM
- EC50 ([1]; human respiratory syncytial virus, NHBE, read-out: RSV EC50, Table 2a): 0.017 µM
- EC50 (SARS-CoV-2; Severe acute respiratory syndrome coronavirus 2, read-out: SARS EC50): 8.35 µM
- CC50 at 48 h ([2]; Table 3): 0.24 µM
- CC50 (MT4 cytotoxicity (CC50); MT4 CC50, Table 2a): 0.279 µM

Structure (SMILES): CCCCCCCCCCCCCCCCCCCOC[C@H](COP(=O)(O)OC[C@H]1O[C@@](C#N)(c2ccc3c(N)ncnn23)[C@H](O)[C@@H]1O)OCc1ccccc1 [Example 7, ((2R,3S,4R,5R)-5-(4-aminopyrrolo[2,1-f][1,2,4]triazin-7-yl)-5-cyano-3,4-dihydroxytetrahydrofuran-2-yl)methyl ((R)-2-(benzyloxy)-3-(nonadecyloxy)propyl) hydrogen phosphate]
- EC50 [1, 3]: 0.08 µM
- EC50 (SARS-CoV-2; [4]): 0.37 µM
- CC50 at 48 h ([2]; 48 hours, Table 1): > 50 µM
- CC50 (MT4 cytotoxicity (CC50); MT4 CC50, Table 1a): 13.9 µM

Structure (SMILES): CCCCCCCCCCCCCCCCCCOC[C@H](COP(=O)(O)OC[C@H]1O[C@@](C#N)(c2ccc3c(N)ncnn23)[C@H](OC(=O)C(C)C)[C@@H]1OC(=O)C(C)C)OCc1ccccc1 [Example 13, (2R,3R,4R,5R)-2-(4-aminopyrrolo[2,1-f][1,2,4]triazin-7-yl)-5-(((((R)-2-(benzyloxy)-3-(octadecyloxy)propoxy)(hydroxy)phosphoryl)oxy)methyl)-2-cyanotetrahydrofuran-3,4-diyl bis(2-methylpropanoate)]
- EC50 [1, 3]: 2.2 µM
- EC50 (SARS-CoV-2; [4]): > 10 µM
- CC50 at 48 h ([2]; 48 hours, Table 1): 15 µM
- CC50 (MT4 cytotoxicity (CC50); MT4 CC50, Table 1a): 32.8 µM

Structure (SMILES): CCCCCCCCCCCCCCCCCCOC[C@H](COP(=O)(O)OC[C@H]1O[C@@](C#N)(c2ccc3c(N)ncnn23)[C@H](O)[C@@H]1O)OCc1cc(F)cc(F)c1 [Example 15, [(2R,3S,4R,5R)-5-(4-aminopyrrolo[2,1-f][1,2,4]triazin-7-yl)-5-cyano-3,4-dihydroxy-tetrahydrofuran-2-yl]methyl [(2R)-2-[(3,5-difluorophenyl)methoxy]-3-octadecoxy-propyl] hydrogen phosphate]
- EC50 [1, 3]: 0.08 µM
- EC50 (SARS-CoV-2; [4]): 0.26 µM
- CC50 at 48 h ([2]; 48 hours, Table 1): 13 µM
- CC50 (MT4 cytotoxicity (CC50); MT4 CC50, Table 1a): 3.31 µM

Structure (SMILES): CCCCCCCCCCCCCCCCCCCCOC[C@H](COP(=O)(O)OC[C@H]1O[C@@](C#N)(c2ccc3c(N)ncnn23)[C@H](O)[C@@H]1O)OCc1ccccc1 [Example 8, ((2R,3S,4R,5R)-5-(4-aminopyrrolo[2,1-f][1,2,4]triazin-7-yl)-5-cyano-3,4-dihydroxytetrahydrofuran-2-yl)methyl ((R)-2-(benzyloxy)-3-(icosyloxy)propyl) hydrogen phosphate]
- EC50 [1, 3]: 0.11 µM
- EC50 (SARS-CoV-2; [4]): 0.8 µM
- CC50 at 48 h ([2]; 48 hours, Table 1): 23 µM
- CC50 (MT4 cytotoxicity (CC50); MT4 CC50, Table 1a): 33.4 µM

Structure (SMILES): CCCCCCCCCCCCCCCCCCOC[C@H](COP(=O)(O)OC[C@H]1O[C@@](C#N)(c2ccc3c(N)ncnn23)[C@H](O)[C@@H]1O)OCc1ccccc1 [Example 1, ((2R,3S,4R,5R)-5-(4-aminopyrrolo[2,1-f][1,2,4]triazin-7-yl)-5-cyano-3,4-dihydroxytetrahydrofuran-2-yl)methyl ((R)-2-(benzyloxy)-3-(octadecyloxy)propyl) hydrogen phosphate]
- EC50 [1, 3]: 0.09 µM
- EC50 (SARS-CoV-2; [4]): 0.94 µM
- CC50 at 48 h ([2]; 48 hours, Table 1): 20 µM
- CC50 (MT4 cytotoxicity (CC50); MT4 CC50, Table 1a): 3.96 µM

Structure (SMILES): CCCCCCCCCCCCCCCCCCOC[C@H](COP(=O)(O)OC[C@H]1O[C@@](C#N)(c2ccc3c(N)ncnn23)[C@H](O)[C@@H]1O)OC(C)c1ccccc1 (single isomer, unassigned) [Example 28]
- EC50 ([1]; read-out: RSV EC50, Table 2a): 0.075 µM
- EC50 ([1]; read-out: RSV-Fluc EC50 (NHBE), NHBE cells, three days, Table 2): 0.07 µM
- EC50 (SARS-CoV-2; read-out: SARS EC50): 2.3 µM
- CC50 (MT4): 1.06 µM

Structure (SMILES): CCCCCCCCCCCCCCCCCCOC[C@H](COP(=O)(O)OC[C@H]1O[C@@](C#N)(c2ccc3c(N)ncnn23)[C@H](O)[C@@H]1O)OCc1cc(F)cc(C#N)c1 [Example 16, [(2R,3S,4R,5R)-5-(4-aminopyrrolo[2,1-f][1,2,4]triazin-7-yl)-5-cyano-3,4-dihydroxy-tetrahydrofuran-2-yl]methyl [(2R)-2-[(3-cyano-5-fluoro-phenyl)methoxy]-3-octadecoxy-propyl] hydrogen phosphate]
- EC50 [1, 3]: 0.06 µM
- EC50 (SARS-CoV-2; [4]): 0.22 µM
- CC50 at 48 h ([2]; 48 hours, Table 1): 18 µM
- CC50 (MT4 cytotoxicity (CC50); MT4 CC50, Table 1a): 0.433 µM
